# From the supplement of paper PMC11061612
# How the values were obtained:
# [1] = tested on: MDA-MB-231 (Breast Carcinoma); test: Bliss excess, mean over the matrix (fraction); higher = more synergy
# Summary of the method: (§1)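 Bliss excess equals the observed combination effect minus the expected value EA + EB − EA·EB, where EA and EB are the effects of each agent alone. Combination Emax is the second-highest inhibition within the matrix. Inhibition was scaled from CellTiter-Glo 2.0 luminescence, with 0 set by vehicle wells and 1 by blank wells, after 72 hours of two-drug dosing of cells plated in 1536-well plates.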
# [2] = tested on: KATOIII (Gastric Carcinoma); test: as above
# Summary of the method: as §1
# [3] = tested on: KARPAS-620 (Plasma Cell Myeloma); test: as above
# Summary of the method: as §1
# [4] = tested on: G-292-Clone-A141B1 (Osteosarcoma); test: as above
# Summary of the method: as §1
# ES7 (Ewing's Sarcoma) = test: as above
# Summary of the method: as §1
# [5] = tested on: DB (B-Cell Non-Hodgkin's Lymphoma); test: as above
# Summary of the method: as §1
# DSH1 (Bladder Carcinoma) [6] = test: as above
# Summary of the method: as §1
# [7] = tested on: SW1990 (Pancreatic Carcinoma); test: as above
# Summary of the method: as §1
# [8] = tested on: NALM-6 (B-Lymphoblastic Leukemia); test: as above
# Summary of the method: as §1
# SK-N-FI (Neuroblastoma) [9] = test: as above
# Summary of the method: as §1
# [10] = tested on: NCI-H1299 (Non-Small Cell Lung Carcinoma); test: as above
# Summary of the method: as §1
# [11] = tested on: OCI-AML2 (Acute Myeloid Leukemia); test: as above
# Summary of the method: as §1
# [12] = tested on: TE-5 (Esophageal Squamous Cell Carcinoma); test: as above
# Summary of the method: as §1
# [13] = tested on: KATOIII (Gastric Carcinoma); test: combination Emax (second highest fraction inhibited in the dose matrix, 72 h); higher = more inhibition; extreme values may be limits of the assay
# Summary of the method: as §1
# DSH1 (Bladder Carcinoma) [14] = test: as above
# Summary of the method: as §1
# [15] = tested on: U-266 (Plasma Cell Myeloma); test: as above
# Summary of the method: as §1
# [16] = tested on: KARPAS-1106P (B-Cell Non-Hodgkin's Lymphoma); test: as above
# Summary of the method: as §1
# SK-N-FI (Neuroblastoma) [17] = test: as above
# Summary of the method: as §1
# [18] = tested on: DOV13 (Ovarian Carcinoma); test: as above
# Summary of the method: as §1
# [19] = tested on: LS-513 (Colorectal Carcinoma); test: as above
# Summary of the method: as §1
Compound,Bliss excess [1],Bliss excess [2],Bliss excess [3],Bliss excess [4],Bliss excess (ES7 (Ewing's Sarcoma)),Bliss excess [5],Bliss excess (DSH1 (Bladder Carcinoma) [6]),Bliss excess [7],Bliss excess [8],Bliss excess (SK-N-FI (Neuroblastoma) [9]),Bliss excess [10],Bliss excess [11],Bliss excess [12],combination Emax [13],combination Emax (DSH1 (Bladder Carcinoma) [14]),combination Emax [15],combination Emax [16],combination Emax (SK-N-FI (Neuroblastoma) [17]),combination Emax [18],combination Emax [19]
"CC1(C)CCC(CN2CCN(c3ccc(C(=O)NS(=O)(=O)c4ccc(NCC5CCOCC5)c([N+](=O)[O-])c4)c(Oc4cnc5[nH]ccc5c4)c3)CC2)=C(c2ccc(Cl)cc2)C1 [Venetoclax] + CS(=O)(=O)CCNCc1ccc(-c2ccc3ncnc(Nc4ccc(OCc5cccc(F)c5)c(Cl)c4)c3c2)o1 [Lapatinib] (first compound max 1 µM, 7x7, partner max 10 µM)",-0.034,-0.0386,0.0569,-0.045,0.0086,0.0803,-0.021,-0.0384,0.0563,-0.0126,-0.0402,0.0327,-0.0388,0.291,0.747,0.254,0.419,0.223,0.166,0.615
"O=C(c1cc(Cc2n[nH]c(=O)c3ccccc23)ccc1F)N1CCN(C(=O)C2CC2)CC1 [Olaparib] + COc1nnc2ccc(N3CCC(c4ccc(OCCN5CCN(C)C(=O)[C@H]5C)cc4)CC3)nn12 [AZD5153] (first compound max 10 µM, 7x7, partner max 1 µM)",-0.0586,-0.0584,-0.0365,-0.0523,0.0166,0.0255,-0.0925,-0.0669,-0.0547,-0.0577,-0.0826,-0.02,-0.052,0.4,0.647,0.291,0.791,0.489,0.455,0.591
"N#Cc1cnc(Nc2cc(NC[C@H]3CNCCO3)c(C(F)(F)F)cn2)cn1 [SRA737] + O=c1[nH]cc(F)c(=O)[nH]1 [5-Fluorouracil] (first compound max 10 µM, 7x7, partner max 20 µM)",-0.0492,-0.0805,0.0096,-0.0458,0.0157,-0.0088,0.0051,-0.0577,0.0117,-0.0627,-0.0191,0.0247,0.0052,0.565,0.414,0.633,0.881,0.601,0.347,0.644
"C=CCn1c(=O)c2cnc(Nc3ccc(N4CCN(C)CC4)cc3)nc2n1-c1cccc(C(C)(C)O)n1 [AZD1775] + CCc1c2c(nc3ccc(O)cc13)-c1cc3c(c(=O)n1C2)COC(=O)[C@]3(O)CC [SN-38] (first compound max 1 µM, partner max 0.3 µM)",0.0031,-0.0948,-0.0145,0.023,-0.0228,-0.0366,-0.0654,-0.0908,-0.0563,-0.0038,-0.0071,-0.0278,-0.0583,0.431,0.999,0.715,0.924,0.586,1,0.771
"Cc1c2c(nn1C)CSCc1cc(n(C)n1)CSc1cc(c3ccccc3c1)OCCCc1c(C(=O)O)n(C)c3c-2c(Cl)ccc13 [AZD5991] + Nc1ccn([C@@H]2O[C@H](CO)[C@@H](O)C2(F)F)c(=O)n1 [Gemcitabine] (first compound max 1 µM, 7x7, partner max 0.3 µM)",-0.0947,0.0444,0.031,-0.0587,0.0062,0.06,0.053,0.0278,-0.0245,0.0074,0.006,0.0516,0.0112,0.49,1,0.944,0.981,0.457,0.889,0.814
"CS(=O)(=O)CCNCc1ccc(-c2ccc3ncnc(Nc4ccc(OCc5cccc(F)c5)c(Cl)c4)c3c2)o1 [Lapatinib] + NC1(c2ccc(-c3nc4ccn5c(=O)[nH]nc5c4cc3-c3ccccc3)cc2)CCC1 [MK-2206] (first compound max 10 µM, 7x7, partner max 10 µM)",0.0364,0.0226,0.032,-0.0004,0.036,-0.0017,0.0917,-0.003,-0.0044,-0.0027,0.0027,0.0419,0.0735,0.44,1,0.352,0.666,0.461,0.867,0.951
"N#Cc1cnc(Nc2cc(NC[C@H]3CNCCO3)c(C(F)(F)F)cn2)cn1 [SRA737] + CCc1c2c(nc3ccc(O)cc13)-c1cc3c(c(=O)n1C2)COC(=O)[C@]3(O)CC [SN-38] (first compound max 10 µM, 7x7, partner max 0.3 µM)",-0.0227,-0.0046,0.0655,0.0099,-0.0138,-0.0472,-0.0809,-0.0824,-0.0083,-0.121,0.0179,-0.0348,-0.0682,0.543,0.95,0.576,0.902,0.606,0.994,0.742
"CN(CCO)CC[C@H](CSc1ccccc1)Nc1ccc(S(=O)(=O)NC(=O)c2ccc(N3CCC([C@@H](O)c4ccccc4-c4ccc(Cl)cc4)CC3)cc2)cc1S(=O)(=O)C(F)(F)F [AZD4320] + CC(=O)O[C@H]1C(=O)[C@@]2(C)[C@H]([C@H](OC(=O)c3ccccc3)[C@]3(O)C[C@H](OC(=O)[C@H](O)[C@@H](NC(=O)c4ccccc4)c4ccccc4)C(C)=C1C3(C)C)[C@]1(OC(C)=O)CO[C@@H]1C[C@@H]2O [Paclitaxel] (first compound max 1 µM, 7x7, partner max 3 µM)",0.111,0.168,0.0111,0.157,0.0227,0.043,0.163,0.329,0.013,-0.025,0.007,-0.0016,0.176,0.803,1,0.966,0.97,0.739,1,0.963
"C[C@@H]1COCCN1c1cc(C2([S@](C)(=N)=O)CC2)nc(-c2ccnc3[nH]ccc23)n1 [AZD6738] + C1CC(C1)(C(=O)[O-])C(=O)[O-].N.N.[Pt+2] [Carboplatin] (first compound max 10 µM, 7x7, partner max 10 µM)",-0.0294,-0.0879,-0.0135,0.0001,0.0089,-0.0019,-0.0559,-0.0997,-0.0122,-0.049,-0.0401,-0.0318,-0.0163,0.424,0.725,0.316,0.658,0.601,0.818,0.727
"O=C(c1cc(Cc2n[nH]c(=O)c3ccccc23)ccc1F)N1CCN(C(=O)C2CC2)CC1 [Olaparib] + CC1(C)CCC(CN2CCN(c3ccc(C(=O)NS(=O)(=O)c4ccc(NCC5CCOCC5)c([N+](=O)[O-])c4)c(Oc4cnc5[nH]ccc5c4)c3)CC2)=C(c2ccc(Cl)cc2)C1 [Venetoclax] (first compound max 10 µM, 7x7, partner max 1 µM)",0.0001,-0.0146,0.003,-0.0566,0.0282,0.0522,-0.0401,-0.0509,0.104,-0.0527,-0.0527,0.0964,-0.0458,0.412,0.272,0.248,0.402,0.0529,0.158,0.18
"CN(CCO)CC[C@H](CSc1ccccc1)Nc1ccc(S(=O)(=O)NC(=O)c2ccc(N3CCC([C@@H](O)c4ccccc4-c4ccc(Cl)cc4)CC3)cc2)cc1S(=O)(=O)C(F)(F)F [AZD4320] + Nc1ccn([C@@H]2O[C@H](CO)[C@@H](O)C2(F)F)c(=O)n1 [Gemcitabine] (first compound max 1 µM, 7x7, partner max 0.3 µM)",-0.0245,0.0213,-0.0168,-0.0015,-0.0271,-0.029,0.0381,0.0103,-0.0024,0.0077,-0.0261,0.0007,0.0559,0.473,0.965,0.857,0.943,0.378,1,0.855
"C[C@@H](Nc1cc(F)cc(F)c1)c1cc(C(=O)N(C)C)cc2c(=O)cc(N3CCOCC3)oc12 [AZD8186] + C1CN(CCC1(C(=O)N[C@@H](CCO)C2=CC=C(C=C2)Cl)N)C3=NC=NC4=C3C=CN4 [AZD5363] (first compound max 10 µM, 7x7, partner max 10 µM)",0.0036,-0.0739,0.0152,-0.0518,0.0043,-0.0191,-0.0297,-0.0436,-0.0357,-0.0299,0.0024,-0.0007,0.0152,0.0505,0.327,0.138,0.755,0.335,0.28,0.534
"CN(CCO)CC[C@H](CSc1ccccc1)Nc1ccc(S(=O)(=O)NC(=O)c2ccc(N3CCC([C@@H](O)c4ccccc4-c4ccc(Cl)cc4)CC3)cc2)cc1S(=O)(=O)C(F)(F)F [AZD4320] + CS(=O)(=O)CCNCc1ccc(-c2ccc3ncnc(Nc4ccc(OCc5cccc(F)c5)c(Cl)c4)c3c2)o1 [Lapatinib] (first compound max 1 µM, 7x7, partner max 10 µM)",0.0241,-0.0407,0.0697,0.0467,0.0769,0.0048,0.0511,-0.0093,-0.0112,0.057,-0.0664,0.0843,0.0542,0.586,1,0.701,0.401,0.578,1,0.956
